ChEMBL document CHEMBL5241099, “Targeting mutated GTPase KRAS in tumor therapies” (Eur J Med Chem, 2021)

Legend:
[1] = Inhibition of SOS1/KRAS (unknown origin) protein-protein interaction; parameters: species or system Homo sapiens
HT-1080 = test: Cytotoxicity against human HT-1080 cells harboring NRAS Q61K mutant assessed as inhibition of cell growth incubated for 72 hrs by celltiter-glo luminescent cell viability assay; format: functional, cell-based; conditions: HT-1080, 72 h
GTPase HRas = GTPase HRas (Homo sapiens, UniProt P01112); test: Inhibition of GST-tagged HRAS (1 to 166 residues) (unknown origin) assessed as inhibition of mSOS1 mediated nucleotide exchange by [35S]GTPgammaS based liquid scintillation counting method
SW480 = test: Antitumor activity against human SW480 cells xenografted in athymic nude mouse assessed as inhibition of tumor growth at 80 mg/kg, po administered 5 days a week for 17 to 20 days relative to control; format: functional; conditions: time 17-20 day
NIH3T3 = test: Antiproliferative activity against mouse NIH3T3 cells transfected with HRAS G12V mutant assessed as inhibition of cell growth incubated for 14 days by dissecting microscope based colony counting assay; format: functional; conditions: NIH3T3, 336 h
[2] = tested on: GTPase KRas (Homo sapiens), P01116 [G12C]; test: Binding affinity to KRAS G12C mutant (unknown origin) assessed as covalent bond formation by measuring Kobs/[I] ratio
[3] = Inhibition of ERK phosphorylation in human MIA PaCa-2 cells; format: cell-based
[4] = Inhibition of Ras GTPase activation in HEK293T cells; format: cell-based, Homo sapiens
[5] = Inhibition of ERK phosphorylation in human NCI-H358 cells; format: cell-based
GTPase KRas [6] = target: GTPase KRas (Homo sapiens, UniProt P01116, G12C); test: Inhibition of KRAS G12C mutant in human NCI-H358 cells incubated for 6 hrs by LC-MS/MS analysis; format: cell-based
GTPase KRas [7] = target: GTPase KRas (Homo sapiens, UniProt P01116, G12V); test: Binding affinity to GppNHp-tagged KRAS G12V mutant (unknown origin)

COc1cc2ncnc(N[C@H](C)c3ccccc3)c2cc1OC gave an IC50 [1] of 1.6 µM.

COc1nc(-c2cccc3c2OCCO3)ccc1Nc1ccc(CN(C)C)cc1 gave an IC50 (HT-1080) of 10 µM.

For Cc1ccc(NC(=S)NNc2c([N+](=O)[O-])cc(C(F)(F)F)cc2[N+](=O)[O-])cc1Cl, the IC50 (GTPase HRas) was 20 µM, the inhibition in vivo at 80 mg/kg (SW480) was 40% and the IC50 (NIH3T3) was 0.5 µM.

For C=CC(=O)N1CC(NC(=O)COc2ccc(Br)cc2NC(=O)c2cc(C)no2)C1, the Ratio [2] was 2 M⁻¹ s⁻¹.

Work on C=CC(=O)N1CCN(c2nc(=O)n(-c3c(C)ccnc3C(C)C)c3nc(-c4c(O)cccc4F)c(F)cc23)[C@@H](C)C1 [SOTORASIB] yielded an IC50 [3] of 0.068 µM.

For Cc1[nH]c2cc(Cl)cc(Cl)c2c1CCN, the EC50 [4] was 15.8 µM.

O=[N+]([O-])c1cc(C(F)(F)F)cc([N+](=O)[O-])c1NNC(=S)Nc1ccc(F)cc1 showed an IC50 (GTPase HRas) of 100 µM and an IC50 (NIH3T3) of 1.4 µM.

For COc1cc2nc(C)nc(N[C@H](C)c3cc(N)cc(C(F)(F)F)c3)c2cc1O[C@H]1CCOC1, the IC50 [1] was 0.005 µM.

For C=CC(=O)N1CCN(c2ncnc3c2CCN(c2cc(O)cc4ccccc24)C3)CC1, the IC50 [5] was 7.6 µM.

In the case of C=CC(=O)N1CC(N2CCN(C(=O)CNc3cc(Cl)c(Cl)cc3O)CC2)C1, the IC50 (GTPase KRas [6]) is reported as 50 µM.

With O=C(NCC1COc2ccccc2O1)c1ccco1 (stereo unspecified) the Kd (GTPase KRas [7]) was 235 µM.

C=CC(=O)N1CCN(C(=O)CNc2cc(I)c(Cl)cc2O)CC1 gave an IC50 (GTPase KRas [6]) of 100 µM.

Compound C=CC(=O)N1CC(NC(=O)Cn2cc(C(=O)N3CCc4c(cccc4OC)C3)c3cc(Br)ccc32)C1 has a Ratio [2] of 230 M⁻¹ s⁻¹.
